According to patent publication US11091471B2, “Isoxazolyl ether derivatives as GABAA α5 PAM” (Hoffmann-La Roche Inc., priority 2016, dated 2021):

Biological target: h-GABA-A α5β3γ2 (Homo sapiens (Human), UniProt P18507+P31644)
Assay: Two-electrode voltage clamp electrophysiology in Xenopus oocytes expressing GABAA receptors, modulation of GABA EC20 current
Format: cell-based
Method: Xenopus laevis oocytes at maturation stages V-VI were used for the expression of cloned mRNA encoding GABAA receptor subunits. Oocytes ready for RNA micro-injection were bought from Ecocyte, Castrop-Rauxel, Germany and stored in modified Barth's medium (composition in mM: NaCl 88, KCl 1, NaHCO3 2.4, HEPES 10, MgSO4 0.82, CaNO3 0.33, CaCl2 0.33, pH=7.5) at 20° C. until the experiment.
Oocytes were plated in 96-well plates to be used in an automated instrument (Robo-ocyte, MultiChannelSystems, Reutlingen, Germany) for microinjection and electrophysiological recordings. Approximately 50 nl of an aqueous solution containing the RNA transcripts for the subunits of the desired GABAA receptor was injected into each oocyte.
Electrophysiological experiments were performed on days 3 to 5 after the micro-injection of mRNA. During the experiment the oocytes were constantly superfused by a solution containing (in mM) NaCl 90, KCl 1, HEPES 5, MgCl2 1, CaCl2 1 (pH 7.4). Oocytes were impaled by two glass microelectrodes (resistance: 0.4 MΩ) which were filled with a solution containing KCl 1M+K-acetate 1.5 M and voltage-clamped to −80 mV. The recordings were performed at room temperature using the Roboocyte two-electrode voltage clamp system (Multichannelsystem). After an initial equilibration period of 1.5 min GABA was added for 1.5 min at a concentration evoking approximately 20% of a maximal current response (EC20). After another rest interval of 2.5 min GABA was again added evoking a response of similar amplitude and shape. […] Current traces were recorded at a digitization rate of 10 Hz during and shortly before and after the GABA application.
Each compound and concentration was tested on at least 3 oocytes.
For the analysis, the digitized current traces of the first and second GABA response were superimposed and, if necessary, rescaled to equal maximal amplitudes. The ratio between the two responses during the time interval of test compound application was calculated point by point. The extremum of the resulting “ratio trace” was taken as the efficacy (“Fold increase”) of the compound expressed as “% modulation of GABA EC20” (100*(Fold increase−1)).

[1] = Table 1, GABA at EC20, test compound at approx. 30 fold its Ki, Xenopus oocytes
[2] = Table 2, reference compounds, % modulation of GABA EC20
[3] = Table 2, reference compounds, GABAA α5β3γ2 overexpressing oocytes

Sequence of h-GABA-A α5β3γ2 (P31644 32-462): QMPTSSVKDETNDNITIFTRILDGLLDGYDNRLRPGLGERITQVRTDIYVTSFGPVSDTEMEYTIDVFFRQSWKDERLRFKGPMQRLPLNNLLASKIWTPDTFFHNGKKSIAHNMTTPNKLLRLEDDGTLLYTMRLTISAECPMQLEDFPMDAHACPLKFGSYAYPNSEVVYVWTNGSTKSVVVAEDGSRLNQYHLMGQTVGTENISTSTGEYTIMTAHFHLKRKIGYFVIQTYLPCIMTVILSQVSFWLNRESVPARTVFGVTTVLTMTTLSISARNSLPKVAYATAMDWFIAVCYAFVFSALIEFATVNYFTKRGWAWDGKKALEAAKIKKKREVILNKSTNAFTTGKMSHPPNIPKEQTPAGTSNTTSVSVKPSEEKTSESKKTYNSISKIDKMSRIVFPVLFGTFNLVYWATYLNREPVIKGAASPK
Sequence of h-GABA-A α5β3γ2 (P28472 26-473 partner): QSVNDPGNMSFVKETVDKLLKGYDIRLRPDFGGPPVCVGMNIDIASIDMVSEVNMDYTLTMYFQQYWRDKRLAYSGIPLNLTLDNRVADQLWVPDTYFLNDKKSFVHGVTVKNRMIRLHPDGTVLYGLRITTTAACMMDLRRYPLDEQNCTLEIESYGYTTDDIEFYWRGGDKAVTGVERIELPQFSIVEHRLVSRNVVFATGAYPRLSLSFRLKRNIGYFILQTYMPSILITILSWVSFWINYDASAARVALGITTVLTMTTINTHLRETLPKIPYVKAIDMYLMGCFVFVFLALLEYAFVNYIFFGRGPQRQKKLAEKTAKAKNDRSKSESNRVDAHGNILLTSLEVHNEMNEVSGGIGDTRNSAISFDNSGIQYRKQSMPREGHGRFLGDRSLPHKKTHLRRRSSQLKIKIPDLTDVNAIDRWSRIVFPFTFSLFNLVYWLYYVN
Sequence of h-GABA-A α5β3γ2 (P18507 40-475): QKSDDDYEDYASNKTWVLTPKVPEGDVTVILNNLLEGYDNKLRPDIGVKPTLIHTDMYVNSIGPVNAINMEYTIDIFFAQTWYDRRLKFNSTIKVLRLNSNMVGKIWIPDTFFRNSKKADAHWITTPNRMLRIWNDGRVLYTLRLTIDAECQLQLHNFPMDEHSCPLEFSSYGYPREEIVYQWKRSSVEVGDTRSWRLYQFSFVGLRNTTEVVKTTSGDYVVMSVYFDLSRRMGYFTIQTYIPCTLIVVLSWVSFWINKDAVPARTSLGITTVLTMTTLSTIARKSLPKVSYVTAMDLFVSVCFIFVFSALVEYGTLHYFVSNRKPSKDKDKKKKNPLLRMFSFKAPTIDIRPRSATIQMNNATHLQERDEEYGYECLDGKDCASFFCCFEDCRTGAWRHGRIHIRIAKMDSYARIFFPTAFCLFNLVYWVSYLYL

SMILES | Fold increase h-GABA-A α5β3γ2 oocyte [1] | other results
Cc1ccc(-c2noc(C)c2COc2ccc(C(N)=O)cn2)cn1 [Example 17, 6-((5-methyl-3-(6-methylpyridin-3-yl)isoxazol-4-yl)methoxy)nicotinamide] | 1.6 | –
Cc1ccc(-c2noc(C)c2COc2cnc(C(=O)NC3CCS(=O)(=O)CC3)cn2)cn1 [Example 72, N-(1,1-dioxothian-4-yl)-5-((5-methyl-3-(6-methyl-3-pyridyl)isoxazol-4-yl)methoxy)pyrazine-2-carboxamide] | 2.3 | –
Cc1onc(-c2cccnc2)c1COc1ccc(C(=O)NC2CCOCC2)cn1 [RO-159, reference compound] | – | Efficacy (GABA) % [2]: −12%; Fold increase h-GABA-A α5β3γ2 oocyte [3]: 0.88
Cc1onc(-c2ccc(Cl)cn2)c1COc1ccc(C(=O)NC2CCOCC2)cn1 [RO-301, reference compound] | – | Efficacy (GABA) % [2]: −18%; Fold increase h-GABA-A α5β3γ2 oocyte [3]: 0.82
Cc1onc(-c2ccccn2)c1COc1ccc(C(=O)NC2CCOCC2)nn1 [RO-094, reference compound] | – | Efficacy (GABA) % [2]: −18%; Fold increase h-GABA-A α5β3γ2 oocyte [3]: 0.82
Cc1onc(-c2ccc(Cl)cn2)c1COc1ccc(C(=O)NC2CCOCC2)nn1 [RE-B, 6-((3-(5-chloro-2-pyridyl)-5-methyl-isoxazol-4-yl)methoxy)-N-tetrahydropyran-4-yl-pyridazine-3-carboxamide, reference compound] | – | Efficacy (GABA) % [2]: +3%
Cc1ccc(-c2noc(C)c2COc2cnc(C(=O)NC3COC3)cn2)cn1 [Example 77, 5-((5-methyl-3-(6-methyl-3-pyridyl)isoxazol-4-yl)methoxy)-N-(oxetan-3-yl)pyrazine-2-carboxamide] | – | Efficacy (GABA) % (Table 1, % modulation of GABA EC20 = 100*(Fold increase−1)): 11%
CCC[C@@H](CO)NC(=O)c1ccc(OCc2c(-c3ccc(C)nc3)noc2C)nc1 [Example 4, (S)—N-(1-hydroxypentan-2-yl)-6-((5-methyl-3-(6-methylpyridin-3-yl)isoxazol-4-yl)methoxy)nicotinamide] | 2.5 | –
Cc1ccc(-c2noc(C)c2COc2ccc(C(=O)NC3CC3)nn2)cn1 [Example 26, N-cyclopropyl-6-((5-methyl-3-(6-methylpyridin-3-yl)isoxazol-4-yl)methoxy)pyridazine-3-carboxamide] | 1.8 | –
Cc1ccc(-c2noc(C)c2COc2cc3c(cn2)C(=O)N(C)C3)cn1 [Example 10, 2-methyl-6-((5-methyl-3-(6-methylpyridin-3-yl)isoxazol-4-yl)methoxy)-1H-pyrrolo[3,4-c]pyridin-3(2H)-one] | 1.8 | –

Continued, in another order:

Fold increase h-GABA-A α5β3γ2 oocyte [1] | SMILES | other results
2.4 | Cc1ccc(-c2noc(C)c2COc2cc3c(cn2)C(=O)N(C2CCS(=O)(=O)CC2)C3)cn1 [Example 91, 2-(1,1-dioxothian-4-yl)-6-((5-methyl-3-(6-methylpyridin-3-yl)-1,2-oxazol-4-yl)methoxy)-1H-pyrrolo[3,4-c]pyridin-3-one] | –
1.8 | Cc1ccc(-c2noc(C)c2COc2ccc(C(=O)N[C@H]3CCOC3)nn2)cn1 [Example 87, (S)-6-((5-methyl-3-(6-methylpyridin-3-yl)isoxazol-4-yl)methoxy)-N-(tetrahydrofuran-3-yl)pyridazine-3-carboxamide] | –
1.6 | Cc1ccc(-c2noc(C)c2COc2ccc(C(=O)N[C@H]3C[C@H](OCC(F)F)C3)nn2)cn1 [Example 170, trans-N-3-((2,2-difluoroethoxy)cyclobutyl)-6-((5-methyl-3-(6-methylpyridin-3-yl)isoxazol-4-yl)methoxy)pyridazine-3-carboxamide] | –
1.5 | Cc1ccc(-c2noc(C)c2COc2ccc(C(=O)N[C@H]3CCOC[C@@H]3O)cn2)cn1 [Example 127, N-((3R,4S)-3-hydroxytetrahydropyran-4-yl)-6-((5-methyl-3-(6-methyl-3-pyridyl)isoxazol-4-yl)methoxy)pyridine-3-carboxamide] | –
